Reference: patent US10829440B2, “Antibacterial compounds and methods of making and using same” (Brown University, priority 2015, dated 2020)
Values after ≈ are worked out from the molar mass of the structure shown. Values belong to the molecule of their own block, whether it stands above or below them.

Key:
B. subtilis [1] = test: Single concentration (250 μM) whole-cell resazurin fluorescence assay; details: for degree of inhibition (smallest values of fluorescence): 250 μM inhibitor, fluorescence at 60 min
S. aureus = test: MIC against Gram-positive organisms: S. aureus; format: cell-based, Staphylococcus aureus; details: for MIC: Staphylococcus aureus, read-out: Minimum inhibitory concentration (MIC) S. aureus
B. subtilis [2] = test: Resazurin microtiter MIC / serial dilution whole-cell assay; details: for Minimum inhibitory concentration (MIC), lowest concentration preventing color change blue to pink: serial dilution 250 μM down to 7.9 μM, triplicate, plates incubated only 30 minutes due to experimental error
FlgJ (GH73) = FlgJ (GH73) (Salmonella typhimurium, UniProt P15931); test: Inhibition of FlgJ (GH73); format: biochemical, Salmonella enterica
Chain of FlgJ (GH73) (P15931 whole entry): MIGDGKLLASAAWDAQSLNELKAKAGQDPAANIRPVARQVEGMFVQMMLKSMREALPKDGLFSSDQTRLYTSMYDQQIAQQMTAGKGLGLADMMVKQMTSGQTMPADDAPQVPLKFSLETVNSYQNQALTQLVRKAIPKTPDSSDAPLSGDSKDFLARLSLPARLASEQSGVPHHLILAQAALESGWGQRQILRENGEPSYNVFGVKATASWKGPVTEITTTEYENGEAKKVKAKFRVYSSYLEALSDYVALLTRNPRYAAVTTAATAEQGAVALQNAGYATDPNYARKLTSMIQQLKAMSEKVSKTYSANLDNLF
Description: Activity was measured as described in Herlihey, et al. 2014, J. Biol Chem 289(45):31029.

S. pneumoniae = test: MIC against Gram-positive organisms: S. pneumoniae; format: cell-based, Streptococcus pneumoniae; details: for MIC: Streptococcus pneumoniae, read-out: Minimum inhibitory concentration (MIC) S. pneumoniae
E. coli = details: cited from earlier work
B. subtilis [3] = test: MIC against Gram-positive organisms: B. subtilis; format: cell-based; details: Bacillus subtilis; read-out: Minimum inhibitory concentration (MIC) B. subtilis
LytG (GH73) = LytG (GH73) (Bacillus subtilis, UniProt O32083); test: In vitro GlcNAcase inhibition, turbidometric assay with purified peptidoglycan; format: biochemical, B. subtilis
Chain of LytG (GH73) (O32083 30-282): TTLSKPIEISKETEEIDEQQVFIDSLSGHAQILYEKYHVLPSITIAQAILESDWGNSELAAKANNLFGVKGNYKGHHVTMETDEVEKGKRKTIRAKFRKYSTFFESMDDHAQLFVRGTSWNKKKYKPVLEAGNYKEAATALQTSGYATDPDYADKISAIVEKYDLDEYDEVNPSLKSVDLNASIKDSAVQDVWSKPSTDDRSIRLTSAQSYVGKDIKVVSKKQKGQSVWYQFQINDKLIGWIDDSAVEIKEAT
Source text: FIG. 9 is a graph illustrating inhibition of LytG (GH73) from B. subtilis by fgka. The assay involved in vitro GlcNAcase inhibition of B. subtilis LytG by fgka, as measured using turbidometric assays with purified peptidoglycan (Horsburgh, et al., 2003, Biochemistry 42:257).

[4] = system: peptidoglycan synthesis/metabolism in B. subtilis; test: UDP-MurNAc-pentapeptide accumulation (nucleotide sugar extraction, C18-RP-HPLC); format: cell-based, Bacillus subtilis; details: 4×MIC for 1 h after chloramphenicol pretreatment
Description: Ugi-derived terminal alkynes target peptidoglycan synthesis/metabolism. B. subtilis was grown to mid-exponential phase (O.D.600˜0.6) and all cultures treated with Chloramphenicol (Cm) ([…]) for 15 min. Cultures were then exposed to vancomycin (Van) ([…]) or fgkc (4×MIC) for 1 h. Nucleotide sugars were extracted with hot water and separated by C18-RP-HPLC. (*) denotes retention time of UDP-MurNAc-pentapeptide.

P. difficile = test: MIC against Gram-positive organisms: P. difficile; format: cell-based, Clostridium difficile (Peptoclostridium difficile); details: Clostridioides difficile; read-out: Minimum inhibitory concentration (MIC) P. difficile

SMILES: COc1ccc(C(C(=O)NCc2ccccc2)N(C(=O)c2ccccc2I)c2ccccc2)cc1 (stereo not shown) [fbqb]
activity (structure-activity comparison) (B. subtilis [1]; 250 μM, compared to aliphatic derivatives): lower activity

MIC (S. aureus): 3.64 µg/mL (≈ 7.02 µM)
SMILES: CCCCNC(=O)C(C1CCCCC1)N(C(=O)c1ccccc1I)c1ccccc1 (stereo not shown) [fgqa]

Minimum inhibitory concentration (MIC), lowest concentration preventing color change blue to pink (B. subtilis [2]): 250 µM (≈ 88.6 µg/mL)
SMILES: C#CCN(C(=O)c1ccccc1)C(C(=O)NCCCC)C1CCCCC1 (stereo not shown) [rgba]

Minimum inhibitory concentration (MIC), lowest concentration preventing color change blue to pink (B. subtilis [2]): 62.5 µM (≈ 30.3 µg/mL)
SMILES: CCCCNC(=O)C(C1CCCCC1)N(C(=O)c1ccccc1I)C(C)C (stereo not shown) [fgoa]

SMILES: O=C(NCc1ccccc1)C(C1CCCCC1)N(C(=O)c1ccccc1I)C1CCCCC1 (stereo not shown) [fgkb]
antibacterial activity against B. subtilis Lyt G (B. subtilis [1]): antibacterial activity
degree of inhibition (smallest values of fluorescence) (B. subtilis [1]): highest degree of inhibition

SMILES: C#CCN(C(=O)c1ccccc1I)C(C(=O)NCCCC)C1CCCCC1 (stereo not shown) [fgba]
antibacterial activity against S. aureus (S. aureus): antibacterial activity
MIC (S. aureus): 2.81 µg/mL (≈ 5.85 µM)
inhibition of FlgJ (GH73) (FlgJ (GH73)): weak inhibition

MIC (S. pneumoniae): 3.56 µg/mL (≈ 7.03 µM)
SMILES: C#CCN(C(=O)c1ccccc1I)C(C(=O)NC1CCCCC1)C1CCCCC1 (stereo not shown) [fgbc]
antibacterial activity against S. pneumoniae (S. pneumoniae): antibacterial activity

MIC (S. pneumoniae): 3.62 µg/mL (≈ 7.04 µM)
SMILES: C#CCN(C(=O)c1ccccc1I)C(C(=O)NCc1ccccc1)C1CCCCC1 (stereo not shown) [fgbb]
antibacterial activity against S. pneumoniae (S. pneumoniae): antibacterial activity

SMILES: CC1=N[C@@H]2[C@@H](O)[C@H](O)[C@@H](CO)O[C@@H]2S1 [NAG-thiazoline]
effect on the viability of E. coli (E. coli): no effect

MIC (B. subtilis [3]): 11.5 µg/mL (≈ 22 µM)
SMILES: CCCCNC(=O)C(C1CCCCC1)N(C(=O)c1ccccc1I)C1CCCCC1 (stereo not shown) [fgka]

SMILES: CCCCNC(=O)C(C1CCCCC1)N(Cc1cn(C2OC(CO)C(O)C(O)C2NC(C)=O)nn1)C(=O)c1ccccc1I (stereo not shown) [BI.fgba]
inhibition of FlgJ (GH73) (FlgJ (GH73)): weak inhibition
inhibition of GlcNAcase LytG (LytG (GH73)): inhibits
MIC (B. subtilis [2]; Bacillus subtilis, read-out: minimum inhibitory concentration (MIC)): 63 µM (≈ 45.8 µg/mL)
bacteriostatic activity (B. subtilis [2]; bacterial strain B. subtilis): concentration-dependent bacteriostatic activity

MIC (B. subtilis [3]): 1.65 µg/mL (≈ 3 µM)
SMILES: O=C(NC1CCCCC1)C(C1CCCCC1)N(C(=O)c1ccccc1I)C1CCCCC1 (stereo not shown) [fgkc]
UDP-MurNAc-pentapeptide accumulation [4]: results in UDP-MurNAc-pentapeptide accumulation
antibacterial activity against B. subtilis Lyt G (B. subtilis [1]): antibacterial activity
degree of inhibition (smallest values of fluorescence) (B. subtilis [1]): highest degree of inhibition
antibacterial activity against S. pneumoniae (S. pneumoniae): antibacterial activity

MIC (P. difficile): 17.5 µg/mL (≈ 35.1 µM)
SMILES: CCCCNC(=O)C(C1CCCCC1)N(C(=O)c1ccccc1I)C(C)(C)C (stereo not shown) [fgna]
